Experiments:
Experiment in all cases: biochemical
Settings in all cases: read-out: Percentage of inhibition / BIIB021 1×10-5 mol/L; competitive radioligand binding
[1] = biological target: T1, Bradykinin B1 (Human) (Homo sapiens, UniProt P46663)
T1 construct: gene BDKRB1
Protocol: (§1) Percent inhibition for each protein was calculated following the reported method (Okamura et al. [2013]).

[2] = biological target: T2, Dopamine D2 short (Human) (Homo sapiens, UniProt P14416)
T2 construct: gene DRD2; short isoform
T2 sequence (P14416 whole entry, canonical isoform): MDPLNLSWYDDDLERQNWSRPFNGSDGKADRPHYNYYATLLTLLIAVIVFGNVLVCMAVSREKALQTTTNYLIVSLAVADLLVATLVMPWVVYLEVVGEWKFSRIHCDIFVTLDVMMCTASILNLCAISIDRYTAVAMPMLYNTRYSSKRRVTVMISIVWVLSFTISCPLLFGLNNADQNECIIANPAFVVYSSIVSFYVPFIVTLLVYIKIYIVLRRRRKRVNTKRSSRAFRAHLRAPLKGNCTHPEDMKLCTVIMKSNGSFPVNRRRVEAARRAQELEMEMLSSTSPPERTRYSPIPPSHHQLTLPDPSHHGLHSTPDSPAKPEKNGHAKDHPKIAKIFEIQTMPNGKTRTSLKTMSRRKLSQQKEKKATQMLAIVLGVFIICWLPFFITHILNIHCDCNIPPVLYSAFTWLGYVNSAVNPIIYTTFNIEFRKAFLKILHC
Protocol: as §1

[3] = biological target: T3, Glucocorticoid (Human) (Homo sapiens, UniProt P04150)
T3 construct: gene NR3C1
Protocol: as §1

[4] = biological target: T4, GABA B (Rattus norvegicus, UniProt Q9Z0U4)
T4 construct: gene Gabbr1
Protocol: as §1

[5] = biological target: T5, Neuropeptide Y2 (Human) (Homo sapiens, UniProt P49146)
T5 construct: gene NPY2R
T5 sequence (P49146 whole entry): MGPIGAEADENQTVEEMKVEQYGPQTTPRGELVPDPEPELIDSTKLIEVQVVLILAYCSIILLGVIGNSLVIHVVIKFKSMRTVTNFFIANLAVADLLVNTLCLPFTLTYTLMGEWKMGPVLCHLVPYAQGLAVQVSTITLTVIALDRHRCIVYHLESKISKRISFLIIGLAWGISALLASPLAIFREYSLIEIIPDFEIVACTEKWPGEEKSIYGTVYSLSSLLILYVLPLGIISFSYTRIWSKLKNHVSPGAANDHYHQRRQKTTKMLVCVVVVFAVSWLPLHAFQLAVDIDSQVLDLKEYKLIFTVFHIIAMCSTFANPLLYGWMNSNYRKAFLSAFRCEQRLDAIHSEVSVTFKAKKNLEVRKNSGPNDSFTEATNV
Protocol: as §1

[6] = biological target: T6, Angiotensin AT1 (Human) (Homo sapiens, UniProt P30556)
T6 construct: gene AGTR1
Protocol: as §1

[7] = biological target: T7, Adenosine A1 (Human) (Homo sapiens, UniProt P30542)
T7 construct: gene ADORA1
Protocol: as §1

[8] = biological target: T8, α2B-Adrenergic (Human) (Homo sapiens, UniProt P18089)
T8 construct: gene ADRA2B
Protocol: as §1

[9] = biological target: T9, Endothelin ETA (Human) (Homo sapiens, UniProt P25101)
T9 construct: gene EDNRA
Protocol: as §1

[10] = biological target: T10, CCK A (Human) (Homo sapiens, UniProt P32238)
T10 construct: gene CCKAR
T10 sequence (P32238 whole entry): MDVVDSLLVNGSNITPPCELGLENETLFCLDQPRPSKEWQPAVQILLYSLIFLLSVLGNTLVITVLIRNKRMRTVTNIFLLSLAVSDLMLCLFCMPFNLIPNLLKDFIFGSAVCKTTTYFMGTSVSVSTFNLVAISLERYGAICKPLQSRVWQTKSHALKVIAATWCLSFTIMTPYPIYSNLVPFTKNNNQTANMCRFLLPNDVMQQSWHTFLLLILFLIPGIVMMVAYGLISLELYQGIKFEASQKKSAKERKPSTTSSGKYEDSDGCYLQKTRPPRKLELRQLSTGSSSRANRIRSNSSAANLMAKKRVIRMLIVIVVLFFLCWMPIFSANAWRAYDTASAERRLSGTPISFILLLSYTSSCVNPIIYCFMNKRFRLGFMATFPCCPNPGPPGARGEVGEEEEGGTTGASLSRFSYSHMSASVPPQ
Protocol: as §1

[11] = biological target: T11, Opiate μ (Human) (Homo sapiens, UniProt P35372)
T11 construct: gene OPRM1
Protocol: as §1

[12] = biological target: T12, Muscarinic M3 (Human) (Homo sapiens, UniProt P20309)
T12 construct: gene CHRM3
T12 sequence (P20309 whole entry): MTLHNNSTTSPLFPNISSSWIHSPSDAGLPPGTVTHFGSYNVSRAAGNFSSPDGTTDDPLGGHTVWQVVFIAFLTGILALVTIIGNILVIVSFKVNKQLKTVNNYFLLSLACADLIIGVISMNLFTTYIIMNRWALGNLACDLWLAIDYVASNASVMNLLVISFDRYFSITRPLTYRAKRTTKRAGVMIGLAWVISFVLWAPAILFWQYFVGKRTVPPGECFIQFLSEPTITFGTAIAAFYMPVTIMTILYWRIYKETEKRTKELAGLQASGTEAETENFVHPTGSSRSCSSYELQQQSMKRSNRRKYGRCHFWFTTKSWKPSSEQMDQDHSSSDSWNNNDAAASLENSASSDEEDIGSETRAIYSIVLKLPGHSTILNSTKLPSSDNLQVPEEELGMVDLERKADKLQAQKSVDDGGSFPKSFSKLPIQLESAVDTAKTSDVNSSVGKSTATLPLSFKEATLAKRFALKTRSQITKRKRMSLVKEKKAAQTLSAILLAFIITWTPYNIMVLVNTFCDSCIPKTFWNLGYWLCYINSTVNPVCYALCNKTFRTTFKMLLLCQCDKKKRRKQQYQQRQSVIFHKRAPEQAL
Protocol: as §1

[13] = biological target: T13, Muscarinic M2 (Human) (Homo sapiens, UniProt P08172)
T13 construct: gene CHRM2
Protocol: as §1

[14] = biological target: T14, Vasopressin V1 (Rattus norvegicus, UniProt P30560)
T14 construct: gene Avpr1a
Protocol: as §1

[15] = biological target: T15, Serotonin 5HT3 (Human) (Homo sapiens, UniProt P46098)
T15 construct: gene HTR3A
T15 sequence (P46098 whole entry): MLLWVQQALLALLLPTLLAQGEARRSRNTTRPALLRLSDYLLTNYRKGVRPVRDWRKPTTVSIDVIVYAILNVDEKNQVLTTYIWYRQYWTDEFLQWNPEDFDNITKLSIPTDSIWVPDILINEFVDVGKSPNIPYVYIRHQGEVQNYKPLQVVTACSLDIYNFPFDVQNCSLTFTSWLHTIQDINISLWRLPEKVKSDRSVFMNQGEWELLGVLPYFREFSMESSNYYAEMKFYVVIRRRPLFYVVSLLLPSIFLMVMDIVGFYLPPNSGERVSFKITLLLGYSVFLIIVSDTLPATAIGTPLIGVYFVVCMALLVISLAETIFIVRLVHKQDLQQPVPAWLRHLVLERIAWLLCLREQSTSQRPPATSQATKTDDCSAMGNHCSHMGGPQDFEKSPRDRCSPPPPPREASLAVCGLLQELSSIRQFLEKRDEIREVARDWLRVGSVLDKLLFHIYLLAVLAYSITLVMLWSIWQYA
Protocol: as §1

[16] = biological target: T16, β2-Adrenergic (Human) (Homo sapiens, UniProt P07550)
T16 construct: gene ADRB2
Protocol: as §1

[17] = biological target: T17, Serotonin 5HT2A (Human) (Homo sapiens, UniProt P28223)
T17 construct: gene HTR2A
Protocol: as §1

[18] = biological target: T18, α1B-Adrenergic (Rattus norvegicus, UniProt P15823)
T18 construct: gene Adra1b
T18 sequence (P15823 whole entry): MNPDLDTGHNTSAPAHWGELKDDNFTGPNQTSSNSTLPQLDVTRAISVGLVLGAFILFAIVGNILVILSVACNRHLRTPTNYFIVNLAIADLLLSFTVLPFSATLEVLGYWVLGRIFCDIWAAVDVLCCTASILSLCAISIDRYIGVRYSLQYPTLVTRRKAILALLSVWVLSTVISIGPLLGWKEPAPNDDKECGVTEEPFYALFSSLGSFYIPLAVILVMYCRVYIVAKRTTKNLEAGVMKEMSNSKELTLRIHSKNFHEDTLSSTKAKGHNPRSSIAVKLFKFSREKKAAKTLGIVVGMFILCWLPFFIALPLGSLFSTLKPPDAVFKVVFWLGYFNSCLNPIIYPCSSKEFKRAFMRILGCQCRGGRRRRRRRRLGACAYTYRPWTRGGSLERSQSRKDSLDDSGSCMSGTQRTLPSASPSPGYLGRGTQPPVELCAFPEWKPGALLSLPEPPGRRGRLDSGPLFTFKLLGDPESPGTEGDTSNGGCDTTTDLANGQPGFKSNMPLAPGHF
Protocol: as §1

[19] = biological target: T19, Serotonin 5HT1A (Human) (Homo sapiens, UniProt P08908)
T19 construct: gene HTR1A
Protocol: as §1

[20] = biological target: T20, Opiate δ (Human) (Homo sapiens, UniProt P41143)
T20 construct: gene OPRD1
Protocol: as §1

[21] = biological target: T21, Bradykinin B2 (Human) (Homo sapiens, UniProt P30411)
T21 construct: gene BDKRB2
Protocol: as §1

[22] = biological target: T22, Cannabinoid CB2 (Human) (Homo sapiens, UniProt P34972)
T22 construct: gene CNR2
Protocol: as §1

[23] = biological target: T23, Melatonin MT1 (Human) (Homo sapiens, UniProt P48039)
T23 construct: gene MTNR1A
T23 sequence (P48039 whole entry): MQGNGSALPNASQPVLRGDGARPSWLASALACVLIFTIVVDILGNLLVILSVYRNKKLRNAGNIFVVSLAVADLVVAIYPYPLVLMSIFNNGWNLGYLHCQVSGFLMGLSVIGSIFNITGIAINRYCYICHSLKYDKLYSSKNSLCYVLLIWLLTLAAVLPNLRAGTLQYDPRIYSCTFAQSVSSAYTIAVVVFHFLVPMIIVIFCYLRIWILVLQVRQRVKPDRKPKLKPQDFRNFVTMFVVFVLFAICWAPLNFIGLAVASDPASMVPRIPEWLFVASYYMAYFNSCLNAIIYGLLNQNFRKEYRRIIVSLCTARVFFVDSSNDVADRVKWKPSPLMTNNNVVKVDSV
Protocol: as §1

[24] = biological target: T24, β1-Adrenergic (Human) (Homo sapiens, UniProt P08588)
T24 construct: gene ADRB1
Protocol: as §1

[25] = biological target: T25, Muscarinic M1 (Human) (Homo sapiens, UniProt P11229)
T25 construct: gene CHRM1
T25 sequence (P11229 whole entry): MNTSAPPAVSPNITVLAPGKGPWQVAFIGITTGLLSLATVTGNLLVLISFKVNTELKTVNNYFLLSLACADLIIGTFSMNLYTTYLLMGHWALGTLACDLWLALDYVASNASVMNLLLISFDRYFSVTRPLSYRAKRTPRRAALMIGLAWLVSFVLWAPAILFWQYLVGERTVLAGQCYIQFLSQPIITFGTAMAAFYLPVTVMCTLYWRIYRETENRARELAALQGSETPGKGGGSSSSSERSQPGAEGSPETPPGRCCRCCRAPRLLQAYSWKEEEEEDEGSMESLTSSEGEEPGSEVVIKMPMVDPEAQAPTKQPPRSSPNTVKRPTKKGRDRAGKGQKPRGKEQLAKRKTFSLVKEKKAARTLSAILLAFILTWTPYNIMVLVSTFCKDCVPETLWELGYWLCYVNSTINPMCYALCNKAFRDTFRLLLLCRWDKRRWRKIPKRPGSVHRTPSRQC
Protocol: as §1

[26] = biological target: T26, Neurokinin NK1 (Human) (Homo sapiens, UniProt P25103)
T26 construct: gene TACR1
Protocol: as §1

[27] = biological target: T27, α1A-Adrenergic (Rattus norvegicus, UniProt P43140)
T27 construct: gene Adra1a
Protocol: as §1

[28] = biological target: T28, Opiate κ (Human) (Homo sapiens, UniProt P41145)
T28 construct: gene OPRK1
Protocol: as §1

[29] = biological target: T29, Cannabinoid CB1 (Human) (Homo sapiens, UniProt P21554)
T29 construct: gene CNR1
T29 sequence (P21554 whole entry): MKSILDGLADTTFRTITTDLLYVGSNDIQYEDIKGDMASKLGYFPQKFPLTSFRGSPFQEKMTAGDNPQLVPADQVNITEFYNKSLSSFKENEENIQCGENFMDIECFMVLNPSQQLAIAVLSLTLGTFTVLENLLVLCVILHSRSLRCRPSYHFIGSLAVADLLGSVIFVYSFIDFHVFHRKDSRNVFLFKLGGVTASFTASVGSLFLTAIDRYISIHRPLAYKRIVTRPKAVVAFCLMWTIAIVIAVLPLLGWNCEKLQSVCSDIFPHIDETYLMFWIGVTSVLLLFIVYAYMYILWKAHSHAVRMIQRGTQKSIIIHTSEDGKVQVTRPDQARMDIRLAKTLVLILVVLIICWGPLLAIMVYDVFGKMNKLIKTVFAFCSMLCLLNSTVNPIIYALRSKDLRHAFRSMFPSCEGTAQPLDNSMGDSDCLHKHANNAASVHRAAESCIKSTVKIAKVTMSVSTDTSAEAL
Protocol: as §1

[30] = biological target: T30, Sigma σ2 (Rattus norvegicus, UniProt Q5U3Y7)
T30 construct: gene Tmem97
T30 sequence (Q5U3Y7 whole entry): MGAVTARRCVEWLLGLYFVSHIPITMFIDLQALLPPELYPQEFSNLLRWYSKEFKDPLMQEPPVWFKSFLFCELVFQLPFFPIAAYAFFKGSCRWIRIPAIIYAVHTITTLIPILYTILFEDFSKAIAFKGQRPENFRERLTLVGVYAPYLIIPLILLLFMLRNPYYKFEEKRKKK
Protocol: as §1

[31] = biological target: T31, α2A-Adrenergic (Human) (Homo sapiens, UniProt P08913)
T31 construct: gene ADRA2A
Protocol: as §1

[32] = biological target: T32, Serotonin transporter (Human) (Homo sapiens, UniProt P31645)
T32 construct: gene SLC6A4
T32 sequence (P31645 whole entry): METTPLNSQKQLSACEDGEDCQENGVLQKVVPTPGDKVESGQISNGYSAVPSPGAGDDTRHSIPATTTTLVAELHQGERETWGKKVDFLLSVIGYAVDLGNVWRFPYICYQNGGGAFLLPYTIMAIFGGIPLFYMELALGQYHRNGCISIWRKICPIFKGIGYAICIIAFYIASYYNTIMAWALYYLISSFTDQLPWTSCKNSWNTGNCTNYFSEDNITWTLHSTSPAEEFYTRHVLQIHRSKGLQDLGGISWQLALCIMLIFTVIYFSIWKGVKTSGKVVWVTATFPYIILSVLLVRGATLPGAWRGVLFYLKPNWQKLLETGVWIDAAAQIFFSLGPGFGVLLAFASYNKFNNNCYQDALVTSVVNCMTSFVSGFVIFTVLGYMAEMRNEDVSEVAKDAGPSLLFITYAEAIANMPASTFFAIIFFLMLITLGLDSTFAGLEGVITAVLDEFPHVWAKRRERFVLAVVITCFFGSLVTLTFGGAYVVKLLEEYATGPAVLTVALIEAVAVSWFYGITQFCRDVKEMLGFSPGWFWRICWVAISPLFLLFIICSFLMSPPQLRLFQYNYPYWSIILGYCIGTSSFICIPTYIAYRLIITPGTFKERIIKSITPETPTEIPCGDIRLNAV
Protocol: as §1

[33] = biological target: T33, Histamine H3 (Human) (Homo sapiens, UniProt Q9Y5N1)
T33 construct: gene HRH3
Protocol: as §1

[34] = biological target: T34, Adenosine A2a (Human) (Homo sapiens, UniProt P29274)
T34 construct: gene ADORA2A
Protocol: as §1

[35] = biological target: T35, Norepinephrine transporter (Human) (Homo sapiens, UniProt P23975)
T35 construct: gene SLC6A2
Protocol: as §1

[36] = biological target: T36, Dopamine D3 (Human) (Homo sapiens, UniProt P35462)
T36 construct: gene DRD3
Protocol: as §1

[37] = biological target: T37, Histamine H2 (Human) (Homo sapiens, UniProt P25021)
T37 construct: gene HRH2
Protocol: as §1

[38] = biological target: T38, Dopamine transporter (Human) (Homo sapiens, UniProt Q01959)
T38 construct: gene SLC6A3
Protocol: as §1

[39] = biological target: T39, Endothelin ETB (Human) (Homo sapiens, UniProt P24530)
T39 construct: gene EDNRB
Protocol: as §1

[40] = biological target: T40, Dopamine D1 (Human) (Homo sapiens, UniProt P21728)
T40 construct: gene DRD1
Protocol: as §1

[41] = biological target: T41, Androgen (Rattus norvegicus, UniProt P15207)
T41 construct: gene Ar
Protocol: as §1

[42] = biological target: T42, Histamine H1 (Human) (Homo sapiens, UniProt P35367)
T42 construct: gene HRH1
Protocol: as §1

## COc1c(C)cnc(Cn2cnc3c(Cl)nc(N)nc32)c1C [BIIB021, 6-Chloro-9-[(4-methoxy-3,5-dimethylpyridin-2-yl)methyl]-9H-purin-2-amine]
[1]
  inhibition at 10 µM: 0%
[2]
  inhibition at 10 µM: 0.9%
[3]
  inhibition at 10 µM: 0%
[4]
  inhibition at 10 µM: 0%
[5]
  inhibition at 10 µM: 1.3%
[6]
  inhibition at 10 µM: 0%
[7]
  inhibition at 10 µM: 8.4%
[8]
  inhibition at 10 µM: 0%
[9]
  inhibition at 10 µM: 4.8%
[10]
  inhibition at 10 µM: 2.8%
[11]
  inhibition at 10 µM: 0%
[12]
  inhibition at 10 µM: 1.9%
[13]
  inhibition at 10 µM: 4.6%
[14]
  inhibition at 10 µM: 3%
[15]
  inhibition at 10 µM: 18%
[16]
  inhibition at 10 µM: 0.9%
[17]
  inhibition at 10 µM: 4.9%
[18]
  inhibition at 10 µM: 0%
[19]
  inhibition at 10 µM: 7.6%
[20]
  inhibition at 10 µM: 4.2%
[21]
  inhibition at 10 µM: 0%
[22]
  inhibition at 10 µM: 0%
[23]
  inhibition at 10 µM: 26%
[24]
  inhibition at 10 µM: 0%
[25]
  inhibition at 10 µM: 1.5%
[26]
  inhibition at 10 µM: 6.2%
[27]
  inhibition at 10 µM: 1.8%
[28]
  inhibition at 10 µM: 14%
[29]
  inhibition at 10 µM: 5.1%
[30]
  inhibition at 10 µM: 2.4%
[31]
  inhibition at 10 µM: 13%
[32]
  inhibition at 10 µM: 0%
[33]
  inhibition at 10 µM: 4.5%
[34]
  inhibition at 10 µM: 14%
[35]
  inhibition at 10 µM: 0%
[36]
  inhibition at 10 µM: 0.4%
[37]
  inhibition at 10 µM: 0.7%
[38]
  inhibition at 10 µM: 1.1%
[39]
  inhibition at 10 µM: 4.7%
[40]
  inhibition at 10 µM: 16%
[41]
  inhibition at 10 µM: 0.7%
[42]
  inhibition at 10 µM: 8.1%

— article PMC10912062, “A novel PET probe to selectively image heat shock protein 90α/β isoforms in the brain” (EJNMMI Radiopharmacy and Chemistry, 2024)
